The results in this text go back to paper PMC3956282, “Binding Stoichiometry of a Recombinant Selenophosphate Synthetase with One Synonymic Substitution E197D to a Fluorescent Nucleotide Analog of ATP, TNP-ATP” (Journal of Amino Acids, 2013).

The target in this assay is T1, selenophosphate synthetase (SPS) (Escherichia coli, UniProt P16456, E197D).
T1 construct: gene selD; full-size selD from E. coli BL21-Gold (DE3), recombinant
Nature of the assay: competitive displacement of TNP-ATP (fluorescence). The format is binding.

T1 sequence (P16456 whole entry E197D): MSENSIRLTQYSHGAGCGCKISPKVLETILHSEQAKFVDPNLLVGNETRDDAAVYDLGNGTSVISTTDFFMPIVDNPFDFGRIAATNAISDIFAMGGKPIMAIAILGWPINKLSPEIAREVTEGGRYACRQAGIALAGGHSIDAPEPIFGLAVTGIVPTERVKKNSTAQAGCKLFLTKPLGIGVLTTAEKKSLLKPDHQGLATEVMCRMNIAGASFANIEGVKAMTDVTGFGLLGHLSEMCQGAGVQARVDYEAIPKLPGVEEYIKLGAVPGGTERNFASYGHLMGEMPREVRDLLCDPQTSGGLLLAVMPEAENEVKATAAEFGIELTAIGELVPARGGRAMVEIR

By EC50 is commonly meant the concentration at which the effect is half-maximal. For `Nc1ncnc2c1ncn2[C@@H]1O[C@H](COP(=O)(O)OP(=O)(O)OP(=O)(O)O)[C@@H](O)[C@H]1O` [ATP], the EC50 amounted to 450 µM.
